# Assay results: the NIST ThermoML archive (doi:10.1016/j.tca.2018.01.023)
# ± gives the expanded uncertainty stated by the source.
# Experiment: Molar enthalpy of transition or fusion
# Settings: Crystal; DSC
smiles,measurement,value
[Ca+2].[O]=[Mo](=[O])([O-])[O-] [calcium molybdate(VI)],Molar enthalpy of transition or fusion,24.4 ± 2.87 kcal/mol
